Measured values as given in EP2446893A1 (priority 2010, dated 2012).
Like-named read-outs stand apart in the source and are kept apart here. Starred links: 1 amine or outer side, 2 acyl side, 3 side chain; linkers in the order of their positions; H or OH if unused. Non-standard residues stand in square brackets, D forms with d. Residues, ends and D or L forms follow the SMILES beside them. No end group written: not given here. ξ: configuration not given here. X1 = O=C(C(Cc1ccc(O)cc1)N=CC(Cc1ccc(O)cc1)N[*:1])[*:2]; Pro(4S-Me) = C[C@@H]1CN[C@H](C(=O)O)C1; d(hSer) = N[C@H](CCO)C(=O)O; ξY = NC(Cc1ccc(O)cc1)C(=O)O

Legend:
primary rat hepatocytes [1] = format: cell-based; settings: hepatocytes incubated for 96 hours
Method: (§1) Rat hepatocytes were isolated by in vitro collagenase perfusion, Mellgren G, et al., Journal of Cellular Physiology 1995;163:232-240. Experimental conditions were as described in Herfindal L, et al., J Med Chem 2009;52:5758-5762, except for assay of NaN3 and general cytotoxicity, where the hepatocytes were seeded in collage-coated 24-well culture dishes. Microinjection of hepatocytes was as described previously, Fladmark KE, et al., Hepatology 1997;25:847-855. The hepatocyte death (by apoptosis or necrosis) was evaluated by microscopy. Long-term hepatocyte viability was assessed also by the WST-1 colorimetric assay of mitochondrial dehydrogenase activity (Roche Applied Sciences, Mannheim, Germany).

primary rat hepatocytes [2] = assay: hepatocyte toxicity / long-term viability (microscopy, WST-1); format: cell-based; settings: for inherent toxicity (morphology, growth, mitochondrial dehydrogenase activity of hepatocytes): hepatocytes incubated for 96 hours; for toxicity for primary rat hepatocytes: not shown
Method: as §1

[3] = solubility in physiological saline; format: physicochemical
[4] = stability on storage and in solution; format: physicochemical
CaM-KII = format: biochemical
OATP1B1 [5] = molecular target: T1, OATP1B1 (Homo sapiens, UniProt Q9Y6L6)
Target sequence in this assay (Q9Y6L6 whole entry): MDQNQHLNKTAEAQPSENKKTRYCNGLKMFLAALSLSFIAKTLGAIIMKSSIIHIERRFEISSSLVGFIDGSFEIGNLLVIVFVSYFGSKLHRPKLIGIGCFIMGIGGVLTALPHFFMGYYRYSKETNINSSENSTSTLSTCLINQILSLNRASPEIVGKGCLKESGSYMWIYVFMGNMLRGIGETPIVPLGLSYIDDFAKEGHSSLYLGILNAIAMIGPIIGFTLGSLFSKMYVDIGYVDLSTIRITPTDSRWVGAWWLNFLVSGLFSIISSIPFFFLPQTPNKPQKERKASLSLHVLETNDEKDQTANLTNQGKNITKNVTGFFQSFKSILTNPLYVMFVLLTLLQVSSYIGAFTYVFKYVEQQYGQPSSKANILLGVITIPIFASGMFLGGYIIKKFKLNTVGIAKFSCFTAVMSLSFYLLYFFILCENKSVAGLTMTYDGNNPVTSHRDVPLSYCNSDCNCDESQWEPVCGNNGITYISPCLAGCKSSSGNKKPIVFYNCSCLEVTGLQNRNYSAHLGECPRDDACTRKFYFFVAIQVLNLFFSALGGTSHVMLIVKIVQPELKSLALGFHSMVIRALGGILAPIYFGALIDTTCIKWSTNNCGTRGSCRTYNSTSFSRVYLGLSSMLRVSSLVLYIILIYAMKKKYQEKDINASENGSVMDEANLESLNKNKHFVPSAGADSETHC

Oatp1b2 [6] = molecular target: T2, Oatp1b2 (Rattus norvegicus, UniProt Q9QZX8)
T2 sequence (Q9QZX8 1-687): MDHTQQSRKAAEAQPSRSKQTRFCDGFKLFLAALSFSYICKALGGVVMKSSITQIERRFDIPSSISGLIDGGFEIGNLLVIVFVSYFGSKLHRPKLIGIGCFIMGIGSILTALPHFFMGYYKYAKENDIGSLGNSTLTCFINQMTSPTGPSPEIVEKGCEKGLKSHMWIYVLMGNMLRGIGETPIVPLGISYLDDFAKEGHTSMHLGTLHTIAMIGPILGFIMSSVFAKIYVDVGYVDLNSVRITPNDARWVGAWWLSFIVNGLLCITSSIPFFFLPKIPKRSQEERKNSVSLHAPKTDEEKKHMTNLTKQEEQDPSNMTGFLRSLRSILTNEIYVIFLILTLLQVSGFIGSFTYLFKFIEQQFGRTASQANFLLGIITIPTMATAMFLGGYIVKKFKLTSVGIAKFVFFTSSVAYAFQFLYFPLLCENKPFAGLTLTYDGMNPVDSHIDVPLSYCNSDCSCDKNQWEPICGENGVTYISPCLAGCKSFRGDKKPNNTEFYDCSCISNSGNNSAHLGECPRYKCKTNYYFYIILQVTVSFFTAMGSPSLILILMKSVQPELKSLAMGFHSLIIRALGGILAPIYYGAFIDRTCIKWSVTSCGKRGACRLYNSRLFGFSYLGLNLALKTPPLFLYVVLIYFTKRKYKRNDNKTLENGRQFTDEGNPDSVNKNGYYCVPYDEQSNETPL

OATP1B3 [7] = molecular target: T3, OATP1B3 (Homo sapiens, UniProt Q9NPD5)
primary rat hepatocytes [8] = test system: primary rat hepatocytes
HEK 293 cells = assay: toxicity for HEK 293 cells with and without OATP1B1/B3 overexpression; settings: not shown
OATP1B1 [9] = molecular target: T1, OATP1B1; remark: listed apart in the source
Target sequence in this assay (Q9Y6L6 whole entry): as the sequence (Q9Y6L6 whole entry) above

Oatp1b2 [10] = molecular target: T2, Oatp1b2; remark: listed apart in the source
OATP1B1 [11] = molecular target: T1, OATP1B1; format: cell-based
Target sequence in this assay (Q9Y6L6 whole entry, looked up): as the sequence (Q9Y6L6 whole entry) above

OATP1B3 [12] = molecular target: T3, OATP1B3; settings: Gui et al. 2010; cited from earlier work
[13] = molecular target: rat hepatocyte channel Oatp1b2 (rat) (UniProt Q9QZX8); assay: cell-based or functional assay

T3 sequence (Q9NPD5 whole entry): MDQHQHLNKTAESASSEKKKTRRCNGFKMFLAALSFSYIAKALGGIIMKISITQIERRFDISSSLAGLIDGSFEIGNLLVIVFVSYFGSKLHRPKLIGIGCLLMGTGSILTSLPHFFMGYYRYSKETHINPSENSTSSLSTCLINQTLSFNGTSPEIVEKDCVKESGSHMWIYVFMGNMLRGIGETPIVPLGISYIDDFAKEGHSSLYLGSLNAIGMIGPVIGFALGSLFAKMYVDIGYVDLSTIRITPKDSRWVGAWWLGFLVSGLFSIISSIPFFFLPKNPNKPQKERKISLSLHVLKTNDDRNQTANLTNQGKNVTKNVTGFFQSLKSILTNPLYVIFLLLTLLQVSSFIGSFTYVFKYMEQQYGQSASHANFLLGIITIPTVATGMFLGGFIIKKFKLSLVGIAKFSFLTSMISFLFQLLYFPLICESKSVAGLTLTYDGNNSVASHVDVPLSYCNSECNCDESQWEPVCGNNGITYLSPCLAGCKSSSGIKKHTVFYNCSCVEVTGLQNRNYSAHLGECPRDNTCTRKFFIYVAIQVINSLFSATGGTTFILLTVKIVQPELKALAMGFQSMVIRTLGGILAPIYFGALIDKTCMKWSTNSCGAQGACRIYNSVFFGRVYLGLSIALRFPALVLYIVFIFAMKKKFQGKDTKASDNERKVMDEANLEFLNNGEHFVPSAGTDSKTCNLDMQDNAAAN

O=C1OC(c2ccc(O)c(S(=O)(=O)O)c2)(c2ccc(O)c(S(=O)(=O)O)c2)c2c(Br)c(Br)c(Br)c(Br)c21 [BSP, bromosulfophthalein]
inherent toxicity (morphology, growth, mitochondrial dehydrogenase activity of hepatocytes) (primary rat hepatocytes [1]): highly toxic

CC(C)[C@@H]1NC(=O)[C@@H]2CCCN2C(=O)[C@@H](CCO)NC(=O)C(Cc2ccc(O)cc2)NC(=O)C(Cc2ccc(O)cc2)N=CC(Cc2ccc(O)cc2)NC(=O)[C@@H]2C[C@H](C)CN2C1=O (stereo partly drawn) [Ncp-M1] (cyclo([X1][ξY][d(hSer)]PV[Pro(4S-Me)]))
inherent toxicity (morphology, growth, mitochondrial dehydrogenase activity of hepatocytes) (primary rat hepatocytes [2]): no apparent inherent toxicity
toxicity for primary rat hepatocytes (primary rat hepatocytes [2]): non-toxic
solubility in physiological saline [3]: high solubility
stability in solution ([4]; in solution, in particular acidic solutions): degrade in solution
stability on storage ([4]; stored at -70°C): non-stable
interference with intracellular steps of microcystin action (protein phosphatase inhibition, CaM-KII activation, ROS production, actin rearrangement) (CaM-KII): did not interfere
Ki (OATP1B1 [5]): 1500 nM
Ki (Oatp1b2 [6]): 350 nM
Ki (OATP1B3 [7]): 0.01063 nM
hepatocyte uptake of microcystin and nodularin (primary rat hepatocytes [8]): blocks
toxicity for HEK 293 cells (HEK 293 cells): non-toxic

CC(C)[C@@H]1NC(=O)[C@@H]2CCCN2C(=O)[C@H](CO)NC(=O)[C@H](Cc2ccc(O)cc2)NC(=O)[C@H](Cc2ccc(O)cc2)NC(=O)[C@H](Cc2ccc(O)cc2)NC(=O)[C@@H]2CCCN2C1=O [cyclic peptide of Seq. ID. No. 1, Tyr1-Tyr2-Ser-Pro-Val-Pro-Tyr7] (cyclo(PVPYYYS))
inherent toxicity (morphology, growth, mitochondrial dehydrogenase activity of hepatocytes) (primary rat hepatocytes [2]): no apparent inherent toxicity
toxicity for primary rat hepatocytes (primary rat hepatocytes [2]): non-toxic
solubility in physiological saline [3]: high solubility
inhibition of nodularin uptake / nodularin-induced apoptosis (OATP1B1 [9]): inhibited completely
potency compared with another peptide (OATP1B1 [9]): lower potency than Ncp-M1
inhibition of nodularin uptake / nodularin-induced apoptosis (OATP1B3 [7]): inhibited completely
potency compared with another peptide (OATP1B3 [7]): lower potency than Ncp-M1
preference for inhibition of OATP1B3 (OATP1B3 [7]): even higher OATP1 B3 preference
inhibition of nodularin uptake / nodularin-induced apoptosis (Oatp1b2 [10]): inhibited completely
potency compared with another peptide (Oatp1b2 [10]): lower potency than Ncp-M1
toxicity for HEK 293 cells (HEK 293 cells): non-toxic

C/C=C1/C(=O)N[C@@H](C(=O)O)[C@H](C)C(=O)N[C@@H](CCCNC(=N)N)C(=O)N[C@@H](/C=C/C(C)=C/[C@H](C)[C@H](Cc2ccccc2)OC)[C@H](C)C(=O)N[C@@H](C(=O)O)CCC(=O)N1C [nodularin]
Km (OATP1B1 [11]): 32 nM

C[C@H]1[C@H](C)CC[C@]2(C(=O)O)CC[C@]3(C)C(=CC[C@@H]4[C@@]5(C)CC[C@H](O)C(C)(C)[C@@H]5CC[C@]43C)[C@H]12 [ursolic acid]
selectivity for OATP1B3 compared to OATP1B1 (OATP1B3 [12]): ten times

YYSPVPY [linear version of the same peptide, Tyr-Tyr-Ser-Pro-Val-Pro-Tyr]
potency compared with another peptide (OATP1B3 [7]): considerably less potent

microcystin-LR (peptide)
apparent KM for uptake, deduced from apoptosis of primary rat hepatocytes [13]: 0.00027 nM
